Experimental data from publication PMC5372259, “Purification, characterization and amino acid content of cholesterol oxidase produced by Streptomyces aegyptia NEAE 102” (BMC Microbiology, 2017).

Test system: T1, cholesterol oxidase from Streptomyces aegyptia NEAE 102
T1 construct: gene choA; native extracellular enzyme purified from culture supernatant (ammonium sulfate, DEAE Sepharose CL-6B); 46 kDa by SDS-PAGE
Assay: peroxidase-coupled H2O2 assay (4-aminoantipyrine/phenol, […] nm); Michaelis-Menten nonlinear regression
Type: biochemical
Conditions: pH 7.0 potassium phosphate, 37 °C, Triton X-100; O2 as co-substrate

## CC(C)CCC[C@@H](C)[C@H]1CC[C@H]2[C@@H]3CC=C4C[C@@H](O)CC[C@]4(C)[C@H]3CC[C@]12C [cholesterol]
  Km: 152 µM
